Source: ChEMBL document CHEMBL1201862, “PubChem BioAssay data set” (2004)
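Step 1: Grow cells in 96-well plates. Step 2: Expose to compound for 48 hours at 5 concentrations. Step 3: Interpolate endpoints linearly; if unreached, use highest concentration. GI50 is the concentration that inhibits growth by half.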 The source made the active and inactive calls. Rule as the data show it: active = GI50 up to about 1.1 µM and inactive = higher.

Columns and labels:
Experiment in all cases: NCI tumour cell line growth inhibition, 48 h
UO-31 = tested on: UO-31
HL-60 = tested on: HL-60
SK-MEL-28 = tested on: SK-MEL-28
786-0 = tested on: 786-0
OVCAR-8 = tested on: OVCAR-8
EKVX = tested on: EKVX
MOLT-4 = tested on: MOLT-4
SK-MEL-2 = tested on: SK-MEL-2
Hs-578T = tested on: Hs-578T
NCI/ADR-RES = tested on: NCI/ADR-RES
TK-10 = tested on: TK-10
KM12 = tested on: KM12
DU-145 = tested on: DU-145
MDA-MB-435 = tested on: MDA-MB-435
ACHN = tested on: ACHN
UACC-257 = tested on: UACC-257
CAKI-1 = tested on: CAKI-1
HCT-15 = tested on: HCT-15
K562 = tested on: K562
MDA-N = tested on: MDA-N

SMILES | GI50 (UO-31) | GI50 (HL-60) | GI50 (SK-MEL-28) | GI50 (786-0) | GI50 (OVCAR-8) | GI50 (EKVX) | GI50 (MOLT-4) | GI50 (SK-MEL-2) | GI50 (Hs-578T) | GI50 (NCI/ADR-RES) | GI50 (TK-10) | GI50 (KM12) | GI50 (DU-145) | GI50 (MDA-MB-435) | GI50 (ACHN) | GI50 (UACC-257) | GI50 (CAKI-1) | GI50 (HCT-15) | GI50 (K562) | GI50 (MDA-N)
COc1cc2c(cc1OCCCOS(C)(=O)=O)N=C[C@@H]1CCCN1C2=O | > 100 µM (inactive) | > 100 µM (inactive) | > 100 µM (inactive) | > 100 µM (inactive) | > 100 µM (inactive) | > 100 µM (inactive) | > 100 µM (inactive) | > 100 µM (inactive) | > 100 µM (inactive) | > 100 µM (inactive) | > 100 µM (inactive) | > 100 µM (inactive) | > 100 µM (inactive) | > 100 µM (inactive) | > 100 µM (inactive) | > 100 µM (inactive) | > 100 µM (inactive) | > 100 µM | – | –
Cc1cc(OCc2nnc3sc(NC(=O)c4ccccc4)nn23)ccc1Cl | 19 µM (inactive) | 34.6 µM (inactive) | 67.5 µM (inactive) | 33.1 µM (inactive) | 20.7 µM (inactive) | 31.1 µM (inactive) | 55.5 µM (inactive) | 28.8 µM (inactive) | 32.1 µM (inactive) | 37 µM (inactive) | 62.4 µM (inactive) | 21.5 µM (inactive) | 24.4 µM (inactive) | 22 µM (inactive) | 20.5 µM (inactive) | 37.7 µM (inactive) | 18 µM (inactive) | 38.7 µM | 94.2 µM (inactive) | –
COc1cc2cc3c4cc(OC)c(OC)cc4cc[n+]3cc2cc1OC | > 100 µM (inactive) | – | > 100 µM (inactive) | – | > 100 µM (inactive) | > 100 µM (inactive) | > 75.5 µM (inactive) | > 100 µM (inactive) | – | > 100 µM (inactive) | – | > 100 µM (inactive) | – | – | – | > 100 µM (inactive) | > 100 µM (inactive) | > 100 µM | > 100 µM (inactive) | –
OCCSCCCSCCO | > 100 µM (inactive) | 30.7 µM (inactive) | > 100 µM (inactive) | > 100 µM (inactive) | > 100 µM (inactive) | > 100 µM (inactive) | 32.1 µM (inactive) | – | – | > 100 µM (inactive) | > 100 µM (inactive) | > 100 µM (inactive) | > 100 µM (inactive) | > 10 µM (inactive) | – | > 100 µM (inactive) | – | > 100 µM | > 100 µM (inactive) | > 100 µM (inactive)
CCOC(=O)c1c(SC(=O)/C=C/c2ccccc2)n(-c2ccccc2)c(=S)n(-c2ccccc2)c1=O | – | – | > 100 µM (inactive) | > 100 µM (inactive) | > 100 µM (inactive) | > 100 µM (inactive) | > 100 µM (inactive) | – | > 100 µM (inactive) | > 100 µM (inactive) | > 100 µM (inactive) | > 100 µM (inactive) | > 100 µM (inactive) | > 100 µM (inactive) | > 100 µM (inactive) | > 100 µM (inactive) | > 100 µM (inactive) | > 100 µM | > 100 µM (inactive) | –
CCOc1ccc(NC(=O)/C(CC(=O)c2c[n+]([O-])c3ccccc3[n+]2[O-])=N\OCCCc2ccccc2)cc1 | > 100 µM (inactive) | > 100 µM (inactive) | > 100 µM (inactive) | > 100 µM (inactive) | > 100 µM (inactive) | > 100 µM (inactive) | > 100 µM (inactive) | > 100 µM (inactive) | – | – | > 100 µM (inactive) | > 100 µM (inactive) | – | – | > 100 µM (inactive) | > 100 µM (inactive) | > 100 µM (inactive) | > 100 µM | 62.5 µM (inactive) | –
O=C(O)[C@@H]1OCCOCCO[C@@H](C(=O)O)[C@H](C(=O)O)OCCOCCO[C@H]1C(=O)O | > 100 µM (inactive) | 14.3 µM (inactive) | > 100 µM (inactive) | > 100 µM (inactive) | > 100 µM (inactive) | > 100 µM (inactive) | > 64.3 µM (inactive) | > 100 µM (inactive) | – | – | > 100 µM (inactive) | > 100 µM (inactive) | – | – | > 61.8 µM (inactive) | > 100 µM (inactive) | > 100 µM (inactive) | > 55.8 µM | > 72.3 µM (inactive) | –
N#Cc1c(O)c2ccccc2[nH]c1=O | > 100 µM (inactive) | > 100 µM (inactive) | > 100 µM (inactive) | > 100 µM (inactive) | > 100 µM (inactive) | > 100 µM (inactive) | > 100 µM (inactive) | > 100 µM (inactive) | – | > 100 µM (inactive) | > 100 µM (inactive) | > 100 µM (inactive) | > 100 µM (inactive) | > 100 µM (inactive) | > 100 µM (inactive) | > 100 µM (inactive) | > 100 µM (inactive) | > 100 µM | > 100 µM (inactive) | > 100 µM (inactive)
c1ccc(SC2(Sc3ccccc3)CCCC2)cc1 | > 100 µM (inactive) | > 100 µM (inactive) | > 100 µM (inactive) | > 100 µM (inactive) | > 100 µM (inactive) | > 100 µM (inactive) | > 100 µM (inactive) | > 100 µM (inactive) | – | – | > 100 µM (inactive) | > 100 µM (inactive) | – | – | > 100 µM (inactive) | > 100 µM (inactive) | > 100 µM (inactive) | > 100 µM | > 100 µM (inactive) | –
COc1cccc2[s+]snc12 | 25.1 µM (inactive) | 23.9 µM (inactive) | > 100 µM (inactive) | 33.6 µM (inactive) | 26.9 µM (inactive) | > 100 µM (inactive) | 29.7 µM (inactive) | 27.2 µM (inactive) | – | – | > 100 µM (inactive) | 59.6 µM (inactive) | – | – | 47.8 µM (inactive) | 30.1 µM (inactive) | 66.1 µM (inactive) | 42.4 µM | 25.7 µM (inactive) | –
COc1ccc(NC(=O)C(=O)C(C(=O)c2ccccc2)C2OC(=O)c3ccccc32)c([N+](=O)[O-])c1 (centres undefined) | > 100 µM (inactive) | > 100 µM (inactive) | > 100 µM (inactive) | > 100 µM (inactive) | > 100 µM (inactive) | > 100 µM (inactive) | > 100 µM (inactive) | > 100 µM (inactive) | – | – | > 100 µM (inactive) | > 100 µM (inactive) | – | – | > 100 µM (inactive) | > 100 µM (inactive) | > 100 µM (inactive) | > 100 µM | > 100 µM (inactive) | –
c1ccc(CNc2nncc3[nH]cnc23)cc1 | > 100 µM (inactive) | > 100 µM (inactive) | > 100 µM (inactive) | > 100 µM (inactive) | > 100 µM (inactive) | > 100 µM (inactive) | > 100 µM (inactive) | > 100 µM (inactive) | – | > 100 µM (inactive) | > 100 µM (inactive) | > 100 µM (inactive) | – | > 100 µM (inactive) | > 100 µM (inactive) | > 100 µM (inactive) | > 100 µM (inactive) | > 100 µM | > 100 µM (inactive) | > 100 µM (inactive)
Cc1ccc(/N=N/C(=O)NNc2ccc(C)c([N+](=O)[O-])c2)cc1[N+](=O)[O-] | 15.2 µM (inactive) | 17.9 µM (inactive) | 26.1 µM (inactive) | 28.2 µM (inactive) | 26.2 µM (inactive) | – | 12.5 µM (inactive) | 14.2 µM (inactive) | – | – | 45.1 µM (inactive) | – | 25.1 µM (inactive) | 36.5 µM (inactive) | 24.8 µM (inactive) | 25.8 µM (inactive) | 18.8 µM (inactive) | 30.1 µM | 11.9 µM (inactive) | 32.7 µM (inactive)
